Data published in ChEMBL document CHEMBL5096227, “Discovery of Ervogastat (PF-06865571): A Potent and Selective Inhibitor of Diacylglycerol Acyltransferase 2 for the Treatment of Non-alcoholic Steatohepatitis” (J Med Chem, 2022).

Key:
[1] = Plasma protein binding in human assessed as unbound fraction ratio at 2 uM; format: ADME, cell-free
[2] = Apparent intrinsic clearance in cryopreserved human hepatocytes measured per million cells at 1 uM incubated for 4 hrs by LC-MS/MS analysis; format: ADME, cell-based, Hepatocyte; details: cryopreserved human hepatocytes, read-out: CLH
[3] = biological target: T1, Diacylglycerol O-acyltransferase 1 (Homo sapiens, UniProt O75907); assay: Inhibition of human DGAT1 using [1-14C]decanoyl-CoA and 1,2-didecanoyl-sn-glycerol as substrates assessed as incorporation of [1-14C]decanoyl […] preincubated for 30 mins followed by substrate addition and measured after 30 to 90 mins by scintillation counting method
T1 sequence (O75907 whole entry): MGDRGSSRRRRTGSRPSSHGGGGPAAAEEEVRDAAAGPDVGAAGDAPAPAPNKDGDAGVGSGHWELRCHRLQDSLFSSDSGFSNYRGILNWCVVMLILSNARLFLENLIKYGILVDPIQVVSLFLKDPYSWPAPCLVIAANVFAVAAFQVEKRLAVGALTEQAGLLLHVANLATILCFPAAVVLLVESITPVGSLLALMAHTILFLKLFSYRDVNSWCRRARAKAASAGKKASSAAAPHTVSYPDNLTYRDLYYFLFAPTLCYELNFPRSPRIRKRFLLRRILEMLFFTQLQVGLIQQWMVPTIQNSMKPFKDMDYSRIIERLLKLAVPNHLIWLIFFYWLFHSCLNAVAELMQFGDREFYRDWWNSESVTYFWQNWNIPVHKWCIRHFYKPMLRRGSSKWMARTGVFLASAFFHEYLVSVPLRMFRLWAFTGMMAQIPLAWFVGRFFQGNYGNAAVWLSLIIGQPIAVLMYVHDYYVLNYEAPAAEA

CYP3A4/5 = CYP3A4/5 (Homo sapiens, UniProt P08684+P20815); assay: Reversible inhibition of CYP3A4/5 in pooled human liver microsomes; format: ADME, Microsome
Cytochrome P450 2C8 = biological target: T2, Cytochrome P450 2C8 (Homo sapiens, UniProt P10632); assay: Reversible inhibition of CYP2C8 in pooled human liver microsomes using desethylamodiaquine as substrate incubated for 10 mins in presence of NADPH by HPLC-MS/MS analysis; format: ADME, Microsome
T2 sequence (P10632 whole entry): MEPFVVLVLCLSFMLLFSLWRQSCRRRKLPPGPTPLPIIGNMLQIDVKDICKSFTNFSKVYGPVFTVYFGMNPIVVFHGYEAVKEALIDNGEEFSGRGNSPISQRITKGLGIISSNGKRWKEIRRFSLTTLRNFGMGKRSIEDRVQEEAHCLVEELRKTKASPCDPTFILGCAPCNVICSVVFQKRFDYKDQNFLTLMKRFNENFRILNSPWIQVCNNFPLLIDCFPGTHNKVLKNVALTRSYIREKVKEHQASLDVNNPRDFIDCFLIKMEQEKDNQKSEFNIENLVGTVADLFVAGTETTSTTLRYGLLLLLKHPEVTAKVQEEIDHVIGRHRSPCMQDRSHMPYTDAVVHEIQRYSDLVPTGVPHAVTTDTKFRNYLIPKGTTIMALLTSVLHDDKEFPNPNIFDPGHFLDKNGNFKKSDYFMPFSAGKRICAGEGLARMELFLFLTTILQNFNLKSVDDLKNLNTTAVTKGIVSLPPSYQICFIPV

[4] = Drug metabolism in cryopreserved human hepatocytes assessed as O-dearylation mediated oxidative metabolite formation at 10 uM measured for 240 mins by HPLC-UV-MS analysis; format: ADME, cell-based, Hepatocyte; details: 4 h
[5] = biological target: T3, Diacylglycerol O-acyltransferase 2 (Rattus norvegicus, UniProt Q5FVP8); assay: Inhibition of rat DGAT2 using [1-14C]decanoyl-CoA and 1,2-didecanoyl-sn-glycerol as substrates assessed as incorporation of [1-14C]decanoyl into triacylglycerol preincubated for 120 mins followed by substrate addition and measured after 40 mins by scintillation counting method
T3 sequence (Q5FVP8 whole entry): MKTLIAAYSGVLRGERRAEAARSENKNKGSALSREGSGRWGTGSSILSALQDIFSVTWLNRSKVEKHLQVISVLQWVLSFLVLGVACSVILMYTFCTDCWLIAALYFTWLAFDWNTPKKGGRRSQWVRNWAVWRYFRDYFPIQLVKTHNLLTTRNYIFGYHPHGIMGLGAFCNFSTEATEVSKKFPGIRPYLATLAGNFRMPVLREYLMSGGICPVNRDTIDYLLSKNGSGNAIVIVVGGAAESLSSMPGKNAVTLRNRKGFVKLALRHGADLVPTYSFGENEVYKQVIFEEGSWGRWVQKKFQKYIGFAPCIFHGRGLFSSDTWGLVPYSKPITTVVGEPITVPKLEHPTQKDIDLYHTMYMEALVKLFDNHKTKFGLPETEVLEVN

[6] = Inhibition of [14C]-glycerol incorporation into triglycerides in human primary hepatocytes; format: functional, cell-based; details: hepatocyte
[7] = Inhibition of [14C]-glycerol incorporation into triglycerides in rat primary hepatocytes; format: functional, cell-based; details: hepatocyte
[8] = Inhibition of [14C]-glycerol incorporation into triglycerides in monkey primary hepatocytes; format: functional, cell-based, Macaca mulatta; details: hepatocyte
[9] = Plasma clearance in Wistar Han rat at 1 mg/kg, iv; format: ADME, organism-based
[10] = Half life in Wistar Han rat at 1 mg/kg, iv; format: ADME, organism-based; details: in vivo
[11] = Half life in Wistar Han rat at 5 mg/kg, po; format: ADME, organism-based; details: in vivo
[12] = Half life in cynomolgus monkey at 1 mg/kg, iv; format: ADME, organism-based, Macaca fascicularis; details: in vivo
[13] = Half life in cynomolgus monkey at 5 mg/kg, po; format: ADME, organism-based, Macaca fascicularis; details: in vivo
[14] = Oral bioavailability in cynomolgus monkey at 5 mg/kg; format: ADME, organism-based, Macaca fascicularis; details: in vivo
[15] = Drug metabolism in rat hepatocytes assessed as hydrolytic cleavage of amide bond mediated metabolite formation; format: ADME, cell-based, Hepatocyte
[16] = In vivo inhibition of DGAT2 in sucrose diet fed Sprague-Dawley rat assessed as reduction in triglyceride level at 90 mg/kg, po administered as single dose and measured after 2 hrs relative to control; format: functional; design: scale not given: the % may be the effect or the level left
Rattus norvegicus [17] = assay: In vivo inhibition of DGAT2 in high fat/high cholesterol diet fed Sprague-Dawley rat model assessed as reduction in plasma triglyceride level administered orally twice daily for 7 days starting from day 14 post diet and measured 2 hrs post last dose; format: functional, organism-based; details: dose 0.3-90 mg/kg, route po, time 7.0 day, DDE = dose-dependent effect
Rattus norvegicus [18] = assay: In vivo inhibition of DGAT2 in high fat/high cholesterol diet fed Sprague-Dawley rat model assessed as reduction in hepatic triglyceride level administered orally twice daily for 7 days starting from day 14 post diet and measured 2 hrs post last dose; format: functional, organism-based; details: dose 0.3-90 mg/kg, route po, time 7.0 day, DDE = dose-dependent effect
[19] = In vivo inhibition of DGAT2 in high fat/high cholesterol diet fed Sprague-Dawley rat model assessed as reduction in hepatic triglyceride level at 90 mg/kg, po administered twice daily for 7 days starting from day 14 post diet and measured 2 hrs post last dose relative to control; format: functional; design: scale not given: the % may be the effect or the level left; details: time 7 day
[20] = In vivo inhibition of DGAT2 in high fat/high cholesterol diet fed Sprague-Dawley rat model assessed as reduction in plasma triglyceride level at 90 mg/kg, po administered twice daily for 7 days starting from day 14 post diet and measured 2 hrs post last dose relative to control; format: functional; design: scale not given: the % may be the effect or the level left; details: time 7 day
[21] = Genotoxicity in human TK6 cells by micronucleus test; format: toxicity, cell-based
physchem = details: buffer, pH 7.4
Description: Lipophilicity, logD of compound at pH 7.4 by shake flask method

## CCOc1cccnc1Oc1cncc(-c2ncc(C(=O)N[C@H]3CCOC3)cn2)c1 [PF-06865571]
[1]
  Ratio: 0.353
[2]
  hepatocyte CLint at 1 µM: < 4 µL/min/1e6 cells
[3]
  IC50: > 50000 nM
CYP3A4/5
  IC50: > 100000 nM
Cytochrome P450 2C8
  IC50: > 100000 nM
[4]
  Drug metabolism: Metabolite_Detected
[5]
  IC50: 833 nM
[6]
  IC50: 2.79 nM
[7]
  IC50: 6.02 nM
[8]
  IC50: 2.13 nM
[9]
  clearance: 61 mL/min/kg
[10]
  half-life: 0.3 h
[11]
  half-life: 1 h
[12]
  half-life: 1 h
[13]
  half-life: 4 h
[14]
  bioavailability: 48%
[15]
  Drug metabolism: Metabolite_Detected
[16]
  Activity: 76%
Rattus norvegicus [17]
  Activity: Dde
Rattus norvegicus [18]
  Activity: Dde
[19]
  Activity: 49%
[20]
  Activity: 70%
[21]
  Activity: Non-Toxic
physchem
  logD: 1.9
